In patent publication US20250145566A1, “PHENETHYLAMINE DERIVATIVES, COMPOSITIONS, AND METHODS OF USE” (Cybin IRL Limited, priority 2022, published 2025):
Entries after “also recorded” stand apart in the source; their conditions may differ. Read-outs that look alike come from different tables or passages of the source.

What was measured:
5-HT2A receptor = molecular target: T1, 5-HT2A receptor (Homo sapiens, UniProt P28223); experiment: 5-HT2A radioligand ([3H]LSD) competition binding; conditions: for affinity at 5-HT2A receptors, comparison in words: [3H]LSD competition binding
T1 construct: host or cells: HEK293 (ATCC CRL-1573), transient, membranes

Rat Liver Microsomes = experiment: Rat liver microsomes (RLM) in vitro metabolism; format: in vitro ADME; conditions: for disappearance in RLM, NADPH dependence: result in words
Method: (§1) Rat Liver Microsomes (RLM). Male Sprague-Dawley rat liver microsomes were purchased from XenoTech. The reaction mixture, minus NADPH, was prepared as described in Table 10. The test compound was added into the reaction mixture at a final concentration of 1 μM. The control compound, testosterone, was run simultaneously with the test compound in a separate reaction. The reaction mixture (without cofactor) was equilibrated in a shaking water bath at 37° C. for 5 minutes. The reaction was initiated by the addition of the cofactor, and the mixture was incubated in a shaking water bath at 37° C. Aliquots (150 μL) were withdrawn at 0, 5, 10, 20, 30, 60, and for some assays at 120 minutes. Test compound and testosterone samples were immediately combined with 150 μL of ice-cold acetonitrile (ACN) containing 0.1% formic acid and internal standard to terminate the reaction. The samples were then mixed and centrifuged to precipitate proteins. All samples were assayed by LC-MS/MS using electrospray ionization. The peak area response ratio (PARR) of analyte to internal standard at each time point was compared to the PARR at time 0 to determine the percent remaining at each time point. Half-lives were calculated using GraphPad software, fitting to a single-phase exponential decay equation.
(§2) In a different series of reactions using RLM, a 10 mM stock solution of the test compound was prepared in DMSO. From this stock solution, an intermediate stock solution of 1 mM was prepared by diluting the compound in DMSO and from this intermediate stock solution, a working solution of 0.30 mM was prepared by diluting the compound in ACN:Water (50:50) as a cocktail of two compounds (i.e., 30 μL the non-deuterated and the deuterated compound in 40 μL diluent in 100 μL total volume). Following this, a master mix of rat liver microsomes (final concentration 0.5 mg/ml, Xenotech Cat #R1000; Lot #1610290) and 0.1 M potassium phosphate buffer was prepared and pre-incubated for 5 min at 37° C. The test compound mixture was then added to achieve a final test article concentration of 1 μM (for each analog if co-dosed; 0.2% DMSO); verapamil was used as a positive control. Subsequently, 10 mM NADPH prepared in 0.1 M potassium phosphate buffer was added (final concentration 1 mM) to initiate the reaction and samples were incubated at 37° C. for the desired time points (0, 5, 15, 30, 45, 60 min). At each time point, 40 μL of the samples were withdrawn and reactions were stopped using 200 μL chilled ACN containing 0.1% formic acid and internal standard carbamazepine (10 ng/mL). The samples were centrifuged, and the supernatant was analyzed by LC-MS/MS. The percent compound remaining at each time point was calculated with respect to that of the 0 min sample. The data were then analyzed to calculate half-life. Blank samples were prepared using DMSO (without the test compound).

MAO-A = molecular target: T2, MAO-A (Homo sapiens, UniProt P21397); experiment: Recombinant human MAO-A in vitro metabolism; format: in vitro ADME; conditions: for half-life at 1 µM: human, recombinant human MAO-A
T2 construct: purchased XenoTech (first series); Corning (second series) Corning 456283
T2 sequence (P21397 1-527): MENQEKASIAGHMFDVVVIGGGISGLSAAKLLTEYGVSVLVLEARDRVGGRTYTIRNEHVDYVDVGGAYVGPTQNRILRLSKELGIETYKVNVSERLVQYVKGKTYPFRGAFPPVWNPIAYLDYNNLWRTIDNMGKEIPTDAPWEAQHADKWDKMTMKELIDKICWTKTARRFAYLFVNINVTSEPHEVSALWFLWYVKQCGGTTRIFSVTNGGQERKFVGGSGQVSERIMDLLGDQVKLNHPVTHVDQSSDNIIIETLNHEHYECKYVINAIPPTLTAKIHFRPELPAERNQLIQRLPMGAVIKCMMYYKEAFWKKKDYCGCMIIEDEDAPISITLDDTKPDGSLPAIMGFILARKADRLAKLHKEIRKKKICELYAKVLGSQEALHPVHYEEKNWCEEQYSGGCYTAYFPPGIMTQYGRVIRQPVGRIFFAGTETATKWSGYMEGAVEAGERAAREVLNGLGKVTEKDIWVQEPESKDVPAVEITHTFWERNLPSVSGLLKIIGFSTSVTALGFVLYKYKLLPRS
Method: Recombinant human MAO-A. hrMAO-A and MAO control were purchased from XenoTech. The reaction mixture was prepared as described in Table 11. The test compound was added into the reaction mixture at a final concentration of 1 μM. The positive control kynuramine (25 μM) was run simultaneously with the test compound in a separate reaction. The reaction mixture (without test compounds or kynuramine) was equilibrated in a shaking water bath at 37° C. for 5 minutes. The reaction was initiated by the addition of the test compound or kynuramine, and the mixture was incubated in a shaking water bath at 37° C. Aliquots (150 μL) of the test compound reaction mixture were withdrawn at 0, 5, 10, 20, 30, 60, and for some assays at 120 minutes. Aliquots (150 μL) of the positive control reaction mixture were withdrawn at 0 and 30 minutes. Test compound and kynuramine samples were immediately combined with 150 μL of ice-cold 100% acetonitrile containing 0.1% formic acid and internal standard (0.2 μM metoprolol) to terminate the reaction. The samples were then mixed and centrifuged to precipitate proteins. All samples were assayed by LC-MS/MS. The peak area response ratio (PARR) of analyte to internal standard at each time point was compared to the PARR at time 0 to determine the percent remaining at each time point. Half-lives were calculated using GraphPad software, fitting to a single-phase exponential decay equation.
(§3) In a different series of reactions using human MAO-A and MAO-B, a 10 mM stock solution of the test compound was prepared in DMSO. From this stock solution, an intermediate stock solution of 1 mM was prepared by diluting the compound in DMSO and from this intermediate stock solution, a working solution of 0.30 mM was prepared by diluting the compound in ACN:Water (50:50) as cocktail of 2 compounds (30 μL each compound in 40 μL diluent for 100 μL). Following this, a master mix of 0.1 M potassium phosphate buffer and test compound mixture i.e., the non-deuterated and the deuterated analog, were prepared to achieve final drug concentration of 1 μM (0.2% DMSO) for the required number of reactions. The aforementioned master mix was pre-incubated at 37° C. for 5 min. To this master mix, MAO-A (final protein conc. 0.1 mg/mL; Corning Cat #456283; Lot #1173003) or MAO-B (final protein conc. 0.1 mg/mL; Corning Cat #456284; Lot #0318001) was added to initiate the reaction. The samples were then incubated at 37° C. for the desired time points. At each time point (0, 5, 15, 30, 45, 60), 40 μL of the samples were withdrawn and reactions were stopped using 200 μL chilled ACN containing 0.1% formic acid and internal standard Carbamazepine (10 ng/mL). The samples were centrifuged, and the supernatant was analyzed by LC-MS/MS. The percent compound remaining at each time point was calculated with respect to that of the 0 min sample. The data were then analyzed to calculate half-life and intrinsic clearance (CLint). Blank samples were prepared using DMSO (without the test compound).

[1] = Rat liver microsomes (RLM) in vitro metabolism; format: in vitro ADME; conditions: Sprague-Dawley
Method: as §1, §2

MAO-B = molecular target: T3, MAO-B (Homo sapiens, UniProt P27338); experiment: human MAO-B in vitro metabolism; format: in vitro ADME; conditions: human MAO-B enzyme (Corning), test compound 1 μM, read-out: MAO-B t1/2
T3 construct: purchased Corning 456284
T3 sequence (P27338 1-520): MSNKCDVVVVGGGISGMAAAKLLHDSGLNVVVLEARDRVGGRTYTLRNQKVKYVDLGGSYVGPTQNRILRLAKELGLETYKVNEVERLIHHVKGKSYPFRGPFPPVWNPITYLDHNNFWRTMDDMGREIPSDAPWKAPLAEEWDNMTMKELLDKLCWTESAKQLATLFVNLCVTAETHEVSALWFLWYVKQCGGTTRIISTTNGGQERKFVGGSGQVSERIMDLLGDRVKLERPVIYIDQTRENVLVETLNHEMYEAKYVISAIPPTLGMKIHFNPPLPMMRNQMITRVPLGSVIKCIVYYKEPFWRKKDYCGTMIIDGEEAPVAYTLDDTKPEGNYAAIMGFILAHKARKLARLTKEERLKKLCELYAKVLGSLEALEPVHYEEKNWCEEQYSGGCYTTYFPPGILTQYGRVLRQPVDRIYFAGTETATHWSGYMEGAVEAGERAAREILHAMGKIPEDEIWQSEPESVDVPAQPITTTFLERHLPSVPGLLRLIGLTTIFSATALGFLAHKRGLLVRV
Method: as §3

5-HT2A (h) = molecular target: T4, 5-HT2A (h) (Homo sapiens, UniProt P28223); conditions: literature, single enantiomers, cited from earlier work; for EC50: read-out: Function 5-HT2A EC50
T4 construct: expressed in transfected cells; host or cells: HEK-293 cells

[2] = rat liver microsomes (Table 17), read-out: RLM t1/2
[3] = 1 μM test compound, read-out: half-life, MAO-A metabolism
[4] = human recombinant MAO-A, test compound 1 μM, read-out: MAO-A t1/2
[5] = pH 7.4, rat liver microsomes, test compound 1 μM, * = apparent NADPH independent reaction, read-out: RLM t1/2
[6] = rat liver microsomes (Table 18), read-out: RLM t1/2

T1 sequence (P28223 whole entry): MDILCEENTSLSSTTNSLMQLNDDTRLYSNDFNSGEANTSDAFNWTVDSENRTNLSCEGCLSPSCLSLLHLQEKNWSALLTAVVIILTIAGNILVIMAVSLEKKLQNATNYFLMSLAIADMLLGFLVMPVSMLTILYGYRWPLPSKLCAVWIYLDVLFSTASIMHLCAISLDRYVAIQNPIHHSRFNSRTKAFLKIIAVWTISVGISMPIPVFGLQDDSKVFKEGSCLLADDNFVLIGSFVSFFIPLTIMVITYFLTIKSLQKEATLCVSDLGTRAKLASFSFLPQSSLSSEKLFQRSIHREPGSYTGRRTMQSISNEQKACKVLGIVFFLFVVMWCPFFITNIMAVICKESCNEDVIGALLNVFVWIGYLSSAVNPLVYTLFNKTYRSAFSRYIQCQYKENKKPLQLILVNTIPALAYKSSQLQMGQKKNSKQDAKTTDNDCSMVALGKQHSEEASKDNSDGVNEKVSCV
T4 sequence (P28223 whole entry): as above

COc1cc(SC(F)(F)F)c(OC)cc1CC(C)N (racemic) [IV-1, 1-(2,5-dimethoxy-4-((trifluoromethyl)thio)phenyl)propan-2-amine]
affinity at 5-HT2A receptors, comparison in words (5-HT2A receptor): affinity at 5-HT2A receptors equal or superior to both enantiomers of Reference Compound 2 | stability / half-life in RLMs, comparison in words (Rat Liver Microsomes; compared with Reference Compound 2): greater stability in RLMs than Reference Compound 2

COc1cc(SC)c(OC)cc1C[C@@H](C)N [Reference Compound 2 (R)]
half-life at 1 µM (MAO-A; Table 18, read-out: MAO-A t1/2): > 120 min | Ki (5-HT2A receptor): 7 nM | half-life at 1 µM [1, 2]: 16 min

[2H]C1([2H])Oc2ccc(CCN)cc2O1 [II-11, 2-(benzo[d][1,3]dioxol-5-yl-2,2-d2)ethan-1-amine]
half-life at 1 µM (MAO-A; [3]): ≤ 8 min | half-life at 1 µM (MAO-A; [4]): 7.97 min | half-life at 1 µM (MAO-B): < 5 min | half-life at 1 µM [1, 5]: < 5 min | disappearance in RLM, NADPH dependence (Rat Liver Microsomes): NADPH-independent

[2H]C([2H])([2H])Oc1cc(SC)c(OC([2H])([2H])[2H])cc1C[C@@H](C)N [IV-9 (R)]
half-life at 1 µM (MAO-A; Table 18, read-out: MAO-A t1/2): > 120 min | Ki (5-HT2A receptor): 26 nM | half-life at 1 µM [1, 6]: 16.6 min

C[C@H](N)Cc1ccc2c(c1)OCO2 [S-MDA]
Function 5-HT2A EMAX (5-HT2A (h)): EMAX = 89% | EC50 (5-HT2A (h)): 18.2 µM

[2H]C1([2H])Oc2cc(CC(C)N)ccc2S1 (stereo not shown) [II-17, 1-(benzo[d][1,3]oxathiol-6-yl-2,2-d2)propan-2-amine]
half-life at 1 µM (MAO-A; [4]): > 120 min | stability in the presence of MAO-A (MAO-A; result in words): stable | half-life at 1 µM (MAO-B): 892 min | half-life at 1 µM [1, 5]: 12.6 min

[2H]C1([2H])Oc2cc(CCN)ccc2S1 [II-15, 2-(benzo[d][1,3]oxathiol-6-yl-2,2-d2)ethan-1-amine]
half-life at 1 µM (MAO-A; [3]): ≤ 8 min | half-life at 1 µM (MAO-A; [4]): 4.42 min | half-life at 1 µM (MAO-B): < 5 min | half-life at 1 µM [1, 5]: < 5 min

NCCc1ccc2c(c1)OCO2 [Reference Compound 5, 3,4-Methylenedioxyphenethylamine, reference compound]
half-life at 1 µM (MAO-A; [3]): ≤ 8 min | half-life at 1 µM (MAO-A; [4]): 8.34 min | half-life at 1 µM (MAO-B): 7.91 min | half-life at 1 µM [1, 5]: < 5 min | disappearance in RLM, NADPH dependence (Rat Liver Microsomes): NADPH-independent

[2H]C([2H])([2H])Oc1cc(SC)c(OC([2H])([2H])[2H])cc1C[C@H](C)N [IV-9 (S)]
half-life at 1 µM (MAO-A; Table 18, read-out: MAO-A t1/2): > 120 min | Ki (5-HT2A receptor): 56 nM | half-life at 1 µM [1, 6]: 6.3 min

COc1cc(SC(F)(F)F)c(OC)cc1CC(C)N (racemic) [IV-1 (racemic)]
Ki (5-HT2A receptor; agonist radioligand: [3H]LSD (Table 18), read-out: 5HT2A Ki): 7 nM | half-life at 1 µM [1, 6]: 40.7 min

COc1cc(CCN)cc(OC)c1SC(F)(F)F [III-5, 2-(3,5-dimethoxy-4-((trifluoromethyl)thio)phenyl)ethan-1-amine]
Ki (5-HT2A receptor): 1.6 nM | affinity at 5-HT2A receptors, comparison in words (5-HT2A receptor): superior affinity at 5-HT2A receptors compared to Reference Compound 1; also recorded: affinity equal to or better than classic 2,4,5-substituted 5-HT2A agonists, such as Reference Compounds 2-4 | Ki (5-HT2A receptor; read-out: 5HT2A Ki at the low-affinity inactive state, [3H]LSD, two-site fit): 676 nM | half-life at 1 µM ([1]; rat, rat liver microsomes, 1 μM test compound, read-out: half-life in the presence of rat liver microsome): > 120 min | RLM t1/2 (Rat Liver Microsomes; rat liver microsomes (Table 17)): >120 min

COc1cc(SC)c(OC)cc1C[C@H](C)N [Reference Compound 2 (S)]
half-life at 1 µM (MAO-A; Table 18, read-out: MAO-A t1/2): > 120 min | Ki (5-HT2A receptor): 18 nM | half-life at 1 µM [1, 2]: 6.34 min

COc1cc(C(F)(F)F)c(OC)cc1CCN [Reference Compound 4, 2-(2,5-dimethoxy-4-(trifluoromethyl)phenyl)ethan-1-amine, reference compound]
Ki (5-HT2A receptor): 3.4 nM | half-life at 1 µM [1, 2]: 16.6 min

COc1cc(SC)c(OC)cc1CCN [Reference Compound 3, 2-(2,5-dimethoxy-4-(methylthio)phenyl)ethan-1-amine, reference compound]
half-life at 1 µM [1, 2]: 6.09 min

C[C@@H](N)Cc1ccc2c(c1)OCO2 [R-MDA]
Function 5-HT2A EMAX (5-HT2A (h)): EMAX = 95% | EC50 (5-HT2A (h)): 5.6 µM
